US20250145587A1, “BROMODOMAIN INHIBITORS” (AbbVie Inc., priority 2016, published 2025)
pKi: −log10 of the molar value.

Biological target: BRD4 (BDI_K57-E168) (Homo sapiens, UniProt O60885)
Test: TR-FRET bromodomain binding assay, BRD4 first bromodomain (BDI)
Description: A time-resolved fluorescence resonance energy transfer (TR-FRET) assay was used to determine the affinities of compounds of the Examples listed in Table 1 for each bromodomain of BRD4. […] An Alexa647-labeled BET-inhibitor was used as the fluorescent probe in the assay.
(§1) Compound dilution series were prepared in DMSO via an approximately 3-fold serial dilution. Compound dilutions were added directly into white, low-volume assay plates (Perkin Elmer Proxiplate 384 Plus #6008280) using a Labcyte Echo in conjunction with Labcyte Access and Thermo Multidrop CombinL robotics. Compounds were then suspended in eight microliters (μL) of assay buffer (20 mM Sodium Phosphate, pH 6.0, 50 mM NaCl, 1 mM Ethylenediaminetetraacetic acid disodium salt dihydrate, 0.01% Triton X-100, 1 mM DL-Dithiothreitol) containing His-tagged bromodomain, Europium-conjugated anti-His antibody (Invitrogen PV5596) and Alexa-647-conjugated probe.
After a one-hour equilibration at room temperature, TR-FRET ratios were determined using an Envision multilabel plate reader (Ex 340, Em 495/520).
TR-FRET data were normalized to the means of 24 no-compound controls (“high”) and 8 controls containing 1 μM un-labeled probe (“low”). Percent inhibition was plotted as a function of compound concentration and the data were fit with the 4 parameter logistic equation to obtain IC50s. Inhibition constants (Ki) were calculated from the IC50s, probe Kd and probe concentration.
Compound dilution series for Compounds A-E were prepared in DMSO via an approximately 3-fold serial dilution from 0.47 mM to 7.8 nM.
as §1, with “Compound” for “Compound dilution series were prepared in DMSO via an approximately 3-fold serial dilution. Compound”
The final concentration of 1× assay mixture contained 2% DMSO, 8 nM His-tagged bromodomain, 1 nM Europium-conjugated anti-His-tag antibody and 100 nM or 30 nM probe (for BDI or BDII, respectively) and compound concentration in the range of […]-150 μM.
TR-FRET data were normalized to the means of 24 no-compound controls (“high”) and 8 controls containing 1 μM un-labeled probe (“low”). Percent inhibition was plotted as a function of compound concentration and the data were fit with the 4 parameter logistic equation to obtain IC50s. Inhibition constants (Ki) were calculated from the IC50s, probe Kd and probe concentration. Typical Z′ values were between 0.65 and 0.75. The minimum significant ratio was determined to evaluate assay reproducibility (Eastwood et al., (2006) J Biomol Screen, 11: 253-261). The MSR was determined to be 2.03 for BDI and 1.93 for BDII, and a moving MSR (last six run MSR overtime) for both BDI and BDII was typically <3.

pKi	Compound
5.94	CCS(=O)(=O)c1ccc(Oc2c(C)cccc2C)c(-c2cn(C)c(=O)cc2O[C@H]2CC[C@H](NC(C)=O)CC2)c1 [Example 1, N-[trans-4-({5-[2-(2,6-dimethylphenoxy)-5-(ethanesulfonyl)phenyl]-1-methyl-2-oxo-1,2-dihydropyridin-4-yl}oxy)cyclohexyl]acetamide]
5.55	CCS(=O)(=O)c1ccc(Oc2c(C)cccc2C)c(-c2cn(C)c(=O)cc2O[C@H]2CC[C@@H](NC(C)=O)CC2)c1 [Example 2, N-[cis-4-({5-[2-(2,6-dimethylphenoxy)-5-(ethanesulfonyl)phenyl]-1-methyl-2-oxo-1,2-dihydropyridin-4-yl}oxy)cyclohexyl]acetamide]
5.98	CCS(=O)(=O)c1ccc(Oc2c(C)cccc2C)c(-c2cn(C)c(=O)cc2O[C@H]2CC[C@H](NC(=O)OC)CC2)c1 [Example 3, methyl [trans-4-({5-[2-(2,6-dimethylphenoxy)-5-(ethanesulfonyl)phenyl]-1-methyl-2-oxo-1,2-dihydropyridin-4-yl}oxy)cyclohexyl]carbamate]
5.98	CCS(=O)(=O)c1ccc(Oc2c(C)cccc2C)c(-c2cn(C)c(=O)cc2O[C@H]2CC[C@H](NS(C)(=O)=O)CC2)c1 [Example 4, N-[trans-4-({5-[2-(2,6-dimethylphenoxy)-5-(ethanesulfonyl)phenyl]-1-methyl-2-oxo-1,2-dihydropyridin-4-yl}oxy)cyclohexyl]methanesulfonamide]
5.89	CCS(=O)(=O)c1ccc(Oc2c(C)cccc2C)c(-c2cn(C)c(=O)cc2O[C@H]2CC[C@H](NC(=O)OC(C)(C)C)CC2)c1 [Example 5, tert-butyl [trans-4-({5-[2-(2,6-dimethylphenoxy)-5-(ethanesulfonyl)phenyl]-1-methyl-2-oxo-1,2-dihydropyridin-4-yl}oxy)cyclohexyl]carbamate]
6.08	CCS(=O)(=O)c1ccc(Oc2c(C)cccc2C)c(-c2cn(C)c(=O)cc2O[C@H]2CC[C@H](NC(=O)C(F)(F)F)CC2)c1 [Example 6, N-[trans-4-({5-[2-(2,6-dimethylphenoxy)-5-(ethanesulfonyl)phenyl]-1-methyl-2-oxo-1,2-dihydropyridin-4-yl}oxy)cyclohexyl]-2,2,2-trifluoroacetamide]
6.31	CCC(=O)N[C@H]1CC[C@H](Oc2cc(=O)n(C)cc2-c2cc(S(=O)(=O)CC)ccc2Oc2c(C)cccc2C)CC1 [Example 7, N-[trans-4-({5-[2-(2,6-dimethylphenoxy)-5-(ethanesulfonyl)phenyl]-1-methyl-2-oxo-1,2-dihydropyridin-4-yl}oxy)cyclohexyl]propanamide]
6.20	CCS(=O)(=O)c1ccc(Oc2c(C)cccc2C)c(-c2cn(C)c(=O)cc2O[C@H]2CC[C@H](NC(=O)C(C)(C)C)CC2)c1 [Example 8, N-[trans-4-({5-[2-(2,6-dimethylphenoxy)-5-(ethanesulfonyl)phenyl]-1-methyl-2-oxo-1,2-dihydropyridin-4-yl}oxy)cyclohexyl]-2,2-dimethylpropanamide]
6.32	CCS(=O)(=O)c1ccc(Oc2c(C)cccc2C)c(-c2cn(C)c(=O)cc2O[C@H]2CC[C@H](NC(=O)COC)CC2)c1 [Example 9, N-[trans-4-({5-[2-(2,6-dimethylphenoxy)-5-(ethanesulfonyl)phenyl]-1-methyl-2-oxo-1,2-dihydropyridin-4-yl}oxy)cyclohexyl]-2-methoxyacetamide]
6.28	CCS(=O)(=O)c1ccc(Oc2c(C)cccc2C)c(-c2cn(C)c(=O)cc2O[C@H]2CC[C@H](NC(=O)C3(C)CC3)CC2)c1 [Example 10, N-[trans-4-({5-[2-(2,6-dimethylphenoxy)-5-(ethanesulfonyl)phenyl]-1-methyl-2-oxo-1,2-dihydropyridin-4-yl}oxy)cyclohexyl]-1-methylcyclopropane-1-carboxamide]
6.11	CCS(=O)(=O)c1ccc(Oc2c(C)cccc2C)c(-c2cn(C)c(=O)cc2O[C@H]2CC[C@H](NC(=O)C3CC3)CC2)c1 [Example 11, N-[trans-4-({5-[2-(2,6-dimethylphenoxy)-5-(ethanesulfonyl)phenyl]-1-methyl-2-oxo-1,2-dihydropyridin-4-yl}oxy)cyclohexyl]cyclopropanecarboxamide]
6.52	CCS(=O)(=O)c1ccc(Oc2c(C)cccc2C)c(-c2cn(C)c(=O)cc2O[C@H]2CC[C@H](NC(=O)C3(C)COC3)CC2)c1 [Example 12, N-[trans-4-({5-[2-(2,6-dimethylphenoxy)-5-(ethanesulfonyl)phenyl]-1-methyl-2-oxo-1,2-dihydropyridin-4-yl}oxy)cyclohexyl]-3-methyloxetane-3-carboxamide]
6.34	CCS(=O)(=O)c1ccc(Oc2c(C)cccc2C)c(-c2cn(C)c(=O)cc2O[C@H]2CC[C@H](NC(=O)C3CC(F)(F)C3)CC2)c1 [Example 13, N-[trans-4-({5-[2-(2,6-dimethylphenoxy)-5-(ethanesulfonyl)phenyl]-1-methyl-2-oxo-1,2-dihydropyridin-4-yl}oxy)cyclohexyl]-3,3-difluorocyclobutane-1-carboxamide]
7.02	CCS(=O)(=O)Nc1ccc(Oc2c(C)cc(C(C)(C)O)cc2C)c(-c2cn(C)c(=O)cc2O[C@H]2CC[C@H](NC(C)=O)CC2)c1 [Example 14, N-{trans-4-[(5-{5-[(ethanesulfonyl)amino]-2-[4-(2-hydroxypropan-2-yl)-2,6-dimethylphenoxy]phenyl}-1-methyl-2-oxo-1,2-dihydropyridin-4-yl)oxy]cyclohexyl}acetamide]
6.99	CCS(=O)(=O)Nc1ccc(Oc2c(C)cc(C(C)(C)O)cc2C)c(-c2cn(C)c(=O)cc2O[C@H]2CC[C@H](NC(=O)OC)CC2)c1 [Example 15, methyl {trans-4-[(5-{5-[(ethanesulfonyl)amino]-2-[4-(2-hydroxypropan-2-yl)-2,6-dimethylphenoxy]phenyl}-1-methyl-2-oxo-1,2-dihydropyridin-4-yl)oxy]cyclohexyl}carbamate]
6.50	CCS(=O)(=O)Nc1ccc(Oc2c(C)cc(F)cc2C)c(-c2cn(C)c(=O)cc2O[C@H]2CC[C@H](NC(=O)OC)CC2)c1 [Example 16, methyl {trans-4-[(5-{5-[(ethanesulfonyl)amino]-2-(4-fluoro-2,6-dimethylphenoxy)phenyl}-1-methyl-2-oxo-1,2-dihydropyridin-4-yl)oxy]cyclohexyl}carbamate]
6.38	CCS(=O)(=O)Nc1cnc(Oc2c(C)cc(F)cc2C)c(-c2cn(C)c(=O)cc2O[C@H]2CC[C@H](NC(=O)OC)CC2)c1 [Example 17, methyl [trans-4-({5′-[(ethanesulfonyl)amino]-2′-(4-fluoro-2,6-dimethylphenoxy)-1-methyl-6-oxo[1,6-dihydro[3,3′-bipyridine]]-4-yl}oxy)cyclohexyl]carbamate]
6.04	COC(=O)N[C@H]1CC[C@H](Oc2cc(=O)n(C)cc2-c2cc(CS(C)(=O)=O)ccc2Oc2c(C)cc(F)cc2C)CC1 [Example 18, methyl {trans-4-[(5-{2-(4-fluoro-2,6-dimethylphenoxy)-5-[(methanesulfonyl)methyl]phenyl}-1-methyl-2-oxo-1,2-dihydropyridin-4-yl)oxy]cyclohexyl}carbamate]
6.21	CCS(=O)(=O)c1ccc(Oc2c(C)cc(F)cc2C)c(-c2cn(C)c(=O)cc2O[C@H]2CC[C@H](N3CCCC3=O)CC2)c1 [Example 19, 5-[5-(ethanesulfonyl)-2-(4-fluoro-2,6-dimethylphenoxy)phenyl]-1-methyl-4-{[trans-4-(2-oxopyrrolidin-1-yl)cyclohexyl]oxy}pyridin-2(1H)-one]
6.34	CCS(=O)(=O)c1ccc(Oc2c(C)cc(F)cc2C)c(-c2cn(C)c(=O)cc2O[C@H]2CC[C@H](N(C)C(C)=O)CC2)c1 [Example 20, N-[trans-4-({5-[5-(ethanesulfonyl)-2-(4-fluoro-2,6-dimethylphenoxy)phenyl]-1-methyl-2-oxo-1,2-dihydropyridin-4-yl}oxy)cyclohexyl]-N-methylacetamide]
